Read-outs that look alike come from different tables or passages of the source.
Assays:
HBV [1] = assay: anti-HBV activity in stable transfected HepG2.2.15 cell line, HBV DNA from secreted virions by realtime PCR; type: cell-based, Hepatitis B virus; details: HepG2.2.15 cells, 6 days of treatment, secreted virion HBV DNA, read-out: HBV-HepG2 2.15 EC50
HepG2 cells [2] = assay: Cytotoxicity in HepG2 cells using CellTiter-Blue, same incubation period as HepG2.2.15 assay; type: cell-based; details: 6 days
Protocol: Cytotoxicity of the compounds was tested in HepG2 cells using CellTiter-Blue, with the same incubation period and dose range as in the HepG2.2.15 assay.

HBV [3] = assay: anti HBV activity in HepG2.117 cell line (Tet-off, inducibly HBV producing), intracellular HBV DNA by realtime PCR; type: cell-based, Hepatitis B virus; details: HepG2.117 cells, 3 days of treatment, intracellular HBV DNA, read-out: HepG2 117 EC50
HepG2 cells [4] = assay: Cytotoxicity in HepG2 cells incubated 4 days, Resazurin assay; details: read-out: HepG2 4 days CC50
HepG2 cells [5] = details: human, 4 days
[6] = HepG2 cells, CellTiter-Blue, read-out: HepG2 6 days CC50
[7] = Hepatitis B virus, HepG2.2.15, 144 h

CCOC(=O)C1=C(CN2CCOCC2)NC(c2ccccn2)=NC1(C)c1ccc(F)cc1 (racemic) [Compound 4a]
EC50 (HBV [1]): > 100 µM
CC50 (HepG2 cells [2]; [6]): 92 µM

COC(=O)C1=C(C)NC(SC)=NC1(C)c1ccc(F)c(F)c1 (single isomer, unassigned) [Compound 160b]
EC50 (HBV [1]): 0.451 µM
EC50 (HBV [3]): 10.5 µM
CC50 (HepG2 cells [4]): > 25 µM

COC(=O)C1=C(C#N)NC(c2ncc(F)cc2F)=NC1(C)c1ccc(F)c(F)c1 (single isomer, unassigned) [Compound 163b]
EC50 (HBV [1]): > 100 µM
EC50 (HBV [3]): > 25 µM
CC50 (HepG2 cells [4]): > 25 µM

COC(=O)C1=C(CN2CCOCC2)NC(c2ccccn2)=NC12CCc1c(F)cccc12 (single isomer, unassigned) [Compound 66b]
EC50 (HBV [1]): 35.1 µM
CC50 (HepG2 cells [5]): > 100 µM
EC50 (HBV [3]): 48.9 µM
CC50 (HepG2 cells [2]; human): > 100 µM

CCOC(=O)C1=C(CN2CCOCC2)NC(c2ccccn2)=NC1(c1ccc(F)cc1)C(F)(F)F (racemic) [Compound 34]
EC50 (HBV [1]): 16.2 µM
CC50 (HepG2 cells [2]; [6]): 20 µM

COC(=O)C1=C(C)NC(c2ncc(F)cc2F)=NC1(C)c1ccc(Cl)c(F)c1 (stereo not shown) [156 •MsOH]
EC50 (HBV [1]): 1.93 µM
EC50 (HBV [3]): 1.09 µM
CC50 (HepG2 cells [4]): > 25 µM

COC(=O)C1=C(C)NC(c2nccs2)=NC12C(F)=C(F)c1cc(F)ccc12 (single isomer, unassigned) [Compound 166b]
EC50 (HBV [1]): 0.197 µM
CC50 (HepG2 cells [5]): > 25 µM
EC50 (HBV [3]): 15.5 µM

CCOC(=O)C1=C(CN2CCOCC2)NC(c2ccccn2)=NC1(c1ccc(F)cc1)C(F)(F)F (racemic) [Compound 34b]
EC50 (HBV [1]): 8.23 µM
CC50 (HepG2 cells [2]; [6]): 41.6 µM

CCOC(=O)C1=C(CN2CCOCC2)NC(c2ccccn2)=NC1(C)c1ccc(F)cc1 (racemic) [Compound 4b]
EC50 (HBV [1]): 0.643 µM
EC50 (HBV [3]): 0.76 µM
CC50 (HepG2 cells [2]; [6]): 92.4 µM
CC50 (HepG2 cells [4]): > 50 µM

CCOC(=O)C1=C(CN2CCOCC2)NC(c2ccccn2)=NC1(c1ccc(F)cc1)C(F)(F)F (racemic) [Compound 34a]
EC50 (HBV [1]): > 100 µM
CC50 (HepG2 cells [2]; [6]): 30.9 µM

COC(=O)C1=C(C)NC(c2ncccn2)=NC1(C)c1ccc(F)c(F)c1 (single isomer, unassigned) [Compound 159b]
EC50 (HBV [1]): > 100 µM
EC50 (HBV [3]): > 25 µM
CC50 (HepG2 cells [4]): > 25 µM

COC(=O)C1=C(C)NC(c2ncccc2F)=NC1(C)c1ccc(F)c(F)c1 (single isomer, unassigned) [Compound 158b]
EC50 (HBV [1]; [7]): > 100 µM
EC50 (HBV [3]): > 25 µM
CC50 (HepG2 cells [4]): > 25 µM

COC(=O)C1=C(C)NC(c2ncc(F)cc2F)=NC1(C)c1ccc(F)c(F)c1 (stereo not shown) [132b •MsOH]
EC50 (HBV [1]; [7]): 0.694 µM
EC50 (HBV [3]; Hepatitis B virus, HepG2.117, 72 h): 0.803 µM
CC50 (HepG2 cells [4]): > 25 µM

N#CC1=C(CN2CCOCC2)NC(c2ccccn2)=NC12CCCc1cc(F)ccc12 (single isomer, unassigned) [Compound 60b]
EC50 (HBV [1]): 2.26 µM
EC50 (HBV [3]): 1.28 µM
CC50 (HepG2 cells [2]; [6]): > 100 µM
CC50 (HepG2 cells [4]): > 100 µM

COC(=O)C1=C(C)NC(c2ncc(F)cc2F)=NC12c1ccccc1OC2(F)F (single isomer, unassigned) [Compound 106b]
EC50 (HBV [1]): 29.4 µM
CC50 (HepG2 cells [5]): > 25 µM
EC50 (HBV [3]): > 25 µM
CC50 (HepG2 cells [2]; human): > 100 µM

COC(=O)C1=C(C)NC(c2nccs2)=NC12C(F)=Cc1c2ccc(F)c1F (single isomer, unassigned) [Compound 174b]
CC50 (HepG2 cells [5]): > 25 µM
EC50 (HBV [3]): > 25 µM

COC(=O)C1=C(C)NC(c2ncc(F)cc2F)=NC1(c1ccc(F)c(F)c1)C(F)F (single isomer, unassigned) [Compound 151b]
EC50 (HBV [1]): 4.25 µM
EC50 (HBV [3]): 3.68 µM
CC50 (HepG2 cells [4]): > 25 µM

COC(=O)C1=C(CN2CCOCC2)NC(c2ccccn2)=NC12c1ccc(F)cc1C(F)C2(F)F (single isomer, unassigned) [Compound 168B]
EC50 (HBV [1]): 5.73 µM
CC50 (HepG2 cells [5]): > 25 µM
EC50 (HBV [3]): 1.49 µM

COC(=O)C1=C(C)NC(c2ncc(F)cc2F)=NC12CC(C)(C)c1ccccc12 (single isomer, unassigned) [Compound 134b]
EC50 (HBV [1]): 41.9 µM
CC50 (HepG2 cells [5]): > 50 µM
EC50 (HBV [3]): > 50 µM
CC50 (HepG2 cells [2]; human): 35.8 µM

COC(=O)C1=C(CN2CCOCC2)NC(c2ccccn2)=NC12CCc1ccc(F)cc12 (single isomer, unassigned) [Compound 96b]
EC50 (HBV [1]): 30.3 µM
CC50 (HepG2 cells [5]): > 100 µM
EC50 (HBV [3]): 18.7 µM
CC50 (HepG2 cells [2]; human): > 100 µM
